According to patent US20100286092A1, “BETA-LACTAMASE INHIBITORS” (priority 2007, published 2010):

How the values were obtained:
Conditions in all cases: in the presence of a fixed amount (8 μg/mL) of Ceftazidime; CAMHB, 16-20 hours at 37° C.
[1] = system: K. pneumoniae expressing the Class A carbapenemase KPC-2
Text: (§1) To determine the ability of test compounds to potentiate the inhibition of the growth of bacterial strains producing beta-lactamase enzymes, classic cell based screening assays were employed. Four bacteria strains producing beta-lactamase enzymes were used: K. pneumoniae expressing the Class A Extended Spectrum Beta-Lactamase (ESBL) CTX-M-15, E. coli expressing the Class A ESBL SHV-5, E. cloacae expressing the Class C P99+, and K. pneumoniae expressing the Class A carbapenemase KPC-2. In order to evaluate the ability of test compounds to inhibit beta-lactamase activity, Applicants used a modification of the broth microdilution assay. The assay was conducted in Cation Adjusted Mueller Hinton Broth (CAMHB, BD #212322, BD Diagnostic Systems, Sparks, Md.). Bacteria strains were grown for 3-5 hours in CAMBH broth. All four strains were grown in presence of 50 μg/mL ampicillin to ensure resistance is maintained. In the meantime, test compounds were diluted in DMSO to a 0.1 mg/mL stock. The compounds were added to a microtiter plate and were diluted in 2-fold serial dilutions in CAMHB in a final concentration range of 8 μg/mL to 0.015 μg/ml. An overlay of CAMHB containing a cephalosporin was added to the compounds at a final static concentration of 8 μg/ml. […] Each of these compound plates are made in quadruplicate, one for each bacteria strain. In addition to the titration of test compounds the MICs of a panel of cephalosporins is also tested to ensure the strains are behaving consistently from test to test. Once the test compound and cephalosporin are added the plates can be inoculated. Inocula are conducted according to CLSI broth microdilution method. After inoculation the plates are incubated for 16-20 hours at 37° C. then the Minimal Inhibitory Concentration (MIC) of the test compound is determined visually.
(§2) Using the methodology described above, examples of the current invention were evaluated for their ability to inhibit the growth of β-lactamase producing bacteria in the presence of a β-lactam antibiotic. […] NT=Not Tested.

[2] = system: E. coli expressing the Class A ESBL SHV-5; format: cell-based
Text: as §1, §2

[3] = system: K. pneumoniae expressing the Class A Extended Spectrum Beta-Lactamase (ESBL) CTX-M-15; format: cell-based
Text: as §1, §2

[4] = system: E. cloacae expressing the Class C P99+; format: cell-based
Text: as §1, §2

SMILES | MIC of example compound, K. pneumoniae KPC-2 + 8 μg/mL CAZ [1] | MIC of example compound, E. coli SHV-5 + 8 μg/mL CAZ [2] | MIC of example compound, K. pneumoniae CTX-M-15 + 8 μg/mL CAZ [3] | MIC of example compound, E. cloacae P99 AmpC + 8 μg/mL CAZ [4]
O=C(Cc1cccs1)N[C@@H](Cc1cccc(C(=O)O)c1O)B(O)O [Example 1, (1R)-1-(2-thiophene-2-yl-acetylamino)-2-(2-hydroxy-3-carboxyphenyl)ethyl-1-boronic acid] | C (C represents an MIC of <1 μg/mL) | C (C represents an MIC of <1 μg/mL) | C (C represents an MIC of <1 μg/mL) | 
O=C(O)COc1cccc(CC(=O)N[C@@H](Cc2cccc(C(=O)O)c2O)B(O)O)c1 [Example 7, (1R)-1-[3-(carboxymethoxy)-phenyl]acetylamino-(3-carboxy-2-hydroxy)benzyl-methylboronic acid] | C (C represents an MIC of <1 μg/mL) | C (C represents an MIC of <1 μg/mL) | C (C represents an MIC of <1 μg/mL) | 
O=C(Cc1cc(Br)cs1)N[C@@H](Cc1cccc(C(=O)O)c1O)B(O)O [Example 9, (1R)-1-(2-(4-bromo-thiophen-2-nyl)acetylamino)-2-(2-hydroxy-3-carboxyphenyl)ethyl-1-boronic acid] | C (C represents an MIC of <1 μg/mL) | C (C represents an MIC of <1 μg/mL) | C (C represents an MIC of <1 μg/mL) | 
CCC(=O)N[C@@H](Cc1cccc(C(=O)O)c1O)B(O)O [Example 16, (1R)-1-(propionylamino)-2-(2-hydroxy-3-carboxyphenyl)ethyl-1-boronic acid] | C (C represents an MIC of <1 μg/mL) |  | C (C represents an MIC of <1 μg/mL) | C (C represents an MIC of <1 μg/mL)
COc1ccc(OC)c(CC(=O)N[C@@H](Cc2cccc(C(=O)O)c2O)B(O)O)c1 [Example 17, (1R)-1-(2-(2,5-dimethoxyphenyl)-acetylamino)-2-(2-hydroxy-3-carboxyphenyl)ethyl-1-boronic acid] |  | A (A represents an MIC>8 μg/mL) | C (C represents an MIC of <1 μg/mL) | C (C represents an MIC of <1 μg/mL)
O=C(CO)N[C@@H](Cc1cccc(C(=O)O)c1O)B(O)O [Example 19, (1R)-1-Hydroxyacetylamino-1-(3-carboxy-2-hydroxy)benzyl-methyl boronic acid] | C (C represents an MIC of <1 μg/mL) | A (A represents an MIC>8 μg/mL) | C (C represents an MIC of <1 μg/mL) | 
O=C(O)c1cccc(C[C@H](NC(=O)C2CC2)B(O)O)c1O [Example 20, (1R)-1-Cyclopropanecarbonyl-amino-1-(3-carboxy-2-hydroxy)benzyl-methylboronic acid] | C (C represents an MIC of <1 μg/mL) |  | C (C represents an MIC of <1 μg/mL) | C (C represents an MIC of <1 μg/mL)
CCCCCC(=O)N[C@@H](Cc1cccc(C(=O)O)c1O)B(O)O [Example 21, (1R)-1-Hexanoylamino-(3-carboxy-2-hydroxy)benzyl-methylboronic acid] | C (C represents an MIC of <1 μg/mL) | C (C represents an MIC of <1 μg/mL) | C (C represents an MIC of <1 μg/mL) | 
O=C(N[C@@H](Cc1cccc(C(=O)O)c1O)B(O)O)c1ccc(F)cc1 [Example 26, (1R)-1-(4-Fluorobenzoylamino)-(3-carboxy-2-hydroxy)benzyl-methylboronic acid] | C (C represents an MIC of <1 μg/mL) |  | C (C represents an MIC of <1 μg/mL) | C (C represents an MIC of <1 μg/mL)
COc1cccc(C(=O)N[C@@H](Cc2cccc(C(=O)O)c2O)B(O)O)c1 [Example 29, (1R)-1-(3-methoxybenzoylamino)-2-(2-hydroxy-3-carboxyphenyl)ethyl-1-boronic acid] | C (C represents an MIC of <1 μg/mL) | C (C represents an MIC of <1 μg/mL) | C (C represents an MIC of <1 μg/mL) | 
COc1ccccc1C(=O)N[C@@H](Cc1cccc(C(=O)O)c1O)B(O)O [Example 34, (1R)-1-(2-methoxybenzoylamino)-2-(2-hydroxy-3-carboxyphenyl)ethyl-1-boronic acid] | C (C represents an MIC of <1 μg/mL) | A (A represents an MIC>8 μg/mL) |  | 
O=C(N[C@@H](Cc1cccc(C(=O)O)c1O)B(O)O)c1ccc(O)cc1 [Example 36, (1R)-1-(4-Hydroxybenzoyl)-amino-1-(3-carboxy-2-hydroxy)benzyl-methylboronic acid] | C (C represents an MIC of <1 μg/mL) |  | C (C represents an MIC of <1 μg/mL) | C (C represents an MIC of <1 μg/mL)
CC(=O)NCC(=O)N[C@@H](Cc1cccc(C(=O)O)c1O)B(O)O [Example 37, (1R)-1-(2-acetamidoacetylamino)-2-(2-hydroxy-3-carboxyphenyl)ethyl-1-boronic acid] | C (C represents an MIC of <1 μg/mL) |  | C (C represents an MIC of <1 μg/mL) | C (C represents an MIC of <1 μg/mL)
NCCC(=O)N[C@@H](Cc1cccc(C(=O)O)c1O)B(O)O.O=CO [Example 38, (1R)-1-(3-aminopropanoylamino)-2-(2-hydroxy-3-carboxyphenyl)ethyl-1-boronic acid formate salt] | C (C represents an MIC of <1 μg/mL) | A (A represents an MIC>8 μg/mL) | A (A represents an MIC>8 μg/mL) | 
O=C(O)c1cccc(C[C@H](NC(=O)c2c(Cl)cccc2Cl)B(O)O)c1O [Example 43, (1R)-1-(2,6-Dichlorobenzoyl)-amino-1-(3-carboxy-2-hydroxy)benzyl-methylboronic acid] | A (A represents an MIC>8 μg/mL) | A (A represents an MIC>8 μg/mL) | A (A represents an MIC>8 μg/mL) | 
Cn1nc(-c2ccccc2)cc1C(=O)N[C@@H](Cc1cccc(C(=O)O)c1O)B(O)O [Example 44, (1R)-1-(1-methyl-3-phenyl-1H-pyrazole-5-carbonyl-amino)-2-(2-hydroxy-3-carboxyphenyl)ethyl-1-boronic acid] |  | A (A represents an MIC>8 μg/mL) | A (A represents an MIC>8 μg/mL) | 
O=C(N[C@@H](Cc1cccc(C(=O)O)c1O)B(O)O)c1ccno1 [Example 46, (1R)-1-(isoxazole-5-carbonyl-amino)-2-(2-hydroxy-3-carboxyphenyl)ethyl-1-boronic acid] | C (C represents an MIC of <1 μg/mL) |  | C (C represents an MIC of <1 μg/mL) | C (C represents an MIC of <1 μg/mL)
Cc1nc(-c2cccc(C(=O)N[C@@H](Cc3cccc(C(=O)O)c3O)B(O)O)c2)no1 [Example 47, (1R)-1-[3-(5-methyl-[1,2,4]oxadiazol-3-yl)-benzoyl]-amino-1-(3-carboxy-2-hydroxy)benzyl-methylboronic acid] |  | A (A represents an MIC>8 μg/mL) | A (A represents an MIC>8 μg/mL) | 
O=C(N[C@@H](Cc1cccc(C(=O)O)c1O)B(O)O)c1ccc(N2CCOCC2)nc1 [Example 48, (1R)-1-(6-morpholin-4-yl-pyridine-3-carbonyl)-amino-1-(3-carboxy-2-hydroxy)benzyl-methylboronic acid] | C (C represents an MIC of <1 μg/mL) | A (A represents an MIC>8 μg/mL) |  | 
